# US7589057B2, “Oil-in-water method for making alpha-2 agonist polymeric drug delivery systems” (Allergan, Inc., priority 2004, dated 2009)
# Legend:
# [1] = Solubility of bimatoprost in water; assay type: physicochemical; settings: room temperature
# Excerpt: (§1) FIGS. 2A, 2B, 2C, 2D, 2E, and 2F illustrate the chemical structure of bimatoprost (AGN 192024, FIG. 2A), 15β bimatoprost (FIG. 2B); 5,6-trans bimatoprost isomer (FIG. 2C); C1 acid of bimatoprost (FIG. 2D); triphenyphosphine oxide (TPPO; FIG. 2E); and 15-Keto bimatoprost (FIG. 2F). Bimatoprost is the active ingredient and the other chemicals are impurities that may be present. […] Bimatoprost is a non-ionizable compound.
# [2] = assay type: physicochemical
# Excerpt: as §1
# [3] = Ionisability of bimatoprost; assay type: physicochemical
# Excerpt: as §1
# [4] = Effects of gamma sterilization on the stability of bimatoprost; assay type: physicochemical
# Procedure: The formula abbreviations correspond to compounds illustrated in FIGS. 2A-2F. High performance liquid chromatography was used to quantify bimatoprost and impurities present in the microparticles. Analytes were eluted from a Waters Symmetry® C18 reverse-phase column using a mobile phase composed of 72/18/10 (water/acetonitrile/methanol v/v/v) containing 0.03% (w/v) trifluoroacetic acid. UV detection was performed at 210 nm.
structure (smiles),measurement,setting,value
CCNC(=O)CCC/C=C\C[C@@H]1[C@@H](/C=C/[C@@H](O)CCc2ccccc2)[C@H](O)C[C@@H]1O [Bimatoprost],solubility,[1],3200 µg/mL
same,partition coefficient Log P,[2],2.4 plus or minus 0.1
same,ionisability,[3],non-ionizable
same,"% wt/wt 5,6-trans",[4]; gamma sterilized,0.1 % wt/wt
same,% wt/wt 15β,[4]; gamma sterilized,0.1 % wt/wt
same,% wt/wt bimatoprost,[4]; gamma sterilized,85.3 % wt/wt
same,"% wt/wt, 15-keto",[4]; gamma sterilized,2.3 % wt/wt
same,decrease of the amount of active bimatoprost by gamma sterilization,[4]; gamma sterilized vs none sterilized,about 10%
same,"% wt/wt 5,6-trans",[4]; none sterilized,0.1 % wt/wt
same,% wt/wt 15β,[4]; none sterilized,0.2 % wt/wt
same,% wt/wt bimatoprost,[4]; none sterilized,95.3 % wt/wt
same,"% wt/wt, 15-keto",[4]; none sterilized,1.0 % wt/wt
